Experimental data as given in patent US20240139333A1, “2,6-DICHLOROPHENYL ESTER COMPOUNDS AND USE THEREOF” (Fusion Pharmaceuticals Inc., priority 2021, published 2024).

What was measured:
[1] = pH stability study; type: physicochemical; details: 20° C.
Description: To a 4 mL scintillation vial containing Compound A-E (in respective experiments; 0.8 mg) was added 4 mL of either a pH 3, pH 5 pH 7 or pH 9 buffer to create a 0.2 mg/mL solution. 2 mL of this solution was added to a 2 mL HPLC vial and placed in the auto sampler of an HPLC-MS at 20° C. Timed aliquots at time (T)=15, 30, 60, 120, 240 and 480 minutes were taken and analyzed by HPLC-MS using elution method 1 (Table 3). […]
pH 3 Buffer: Citric acid/Na2HPO4 (79.45 mL 0.1 M-citric acid and 20.55 mL 0.2-Na2HPO4) pH 5 Buffer: Citric acid/Na2HPO4 (48.50 mL 0.1 M-citric acid and 51.50 mL 0.2-Na2HPO4) pH 7 Buffer: Citric acid/Na2HPO4 (17.65 mL 0.1 M-citric acid and 82.35 mL 0.2-Na2HPO4) pH 9 Buffer: Sodium Carbonate/Sodium Bicarbonate (10 mL 0.1 M-Na2CO3 and 90 mL 0.1-NaHCO3)

[2] = Comparative active ester reactivity study with HOA nucleophile (N-hydroxy-N-methylbenzamide); details: N-Hydroxy-N-methylbenzamide 1 eq., 22±2° C.
Description: (§1) General Experimental Protocol for Comparative Active Ester Reactivity Study with HOPO or HOA Nucleophiles
(§2) To a 4 mL scintillation vial containing Compound A-E (in respective experiments; 1 eq.) was added a stir bar followed by 150 μL of HPLC grade acetonitrile. In another 4 mL scintillation vial containing a respective nucleophile (1 eq.) was added 280 μL HPLC grade water. The solutions were combined and allowed to stir at room temperature (22±2° C.) for 4 hours. Timed aliquots at time (T)=15, 30, 60, 120 and 240 minutes were taken and analyzed by HPLC-MS using elution method 1 (Table 1).

[3] = Comparative active ester reactivity study with HOPO nucleophile; details: 1,2-HOPO 1 eq., 22±2° C.
Description: as §1, §2

[4] = Comparative active ester reactivity study with HOA nucleophile (benzhydroxamic acid); details: Benzhydroxamic Acid 1 eq., 22±2° C.
Description: as §1, §2

[5] = DMSO stability study; type: physicochemical
Description: To a 4 mL scintillation vial containing Compound A-E (in respective experiments; 4 mg) was added a stir bar followed by 500 μL of anhydrous dimethyl sulfoxide and was allowed to stir at room temperature (22±2° C.) for 4 hours. Timed aliquots at time (T)=15, 30, 60, 120 and 240 minutes were taken, dissolved in water to achieve 2% DMSO composition and analyzed by HPLC-MS using elution method 1 (Table 5).

[6] = Nucleophilic reactivity study with L-Lysine; details: L-Lysine 5 equiv, 22±2° C.
Description: General Experimental Protocol for Nucleophilic Reactivity Study with L-Lysine
To a 4 mL scintillation vial containing Compound A-E (in respective experiments; 1 eq.) was added a stir bar followed by 70 μL of HPLC grade acetonitrile. In another 4 mL scintillation vial containing L-Lysine monohydrochloride (5 eq.) was added 130 μL HPLC grade water followed by diisopropylethylamine (5 eq.). The solutions were combined and allowed to stir at room temperature (22±2° C.). Timed aliquots at time (T)=15, 30, 60 and 120 minutes were taken and analyzed by HPLC-MS using elution method 1 (Table 2).

[7] = Temperature stability study in H2O; type: physicochemical
Description: 20° C.: To a 4 mL scintillation vial containing Compound A-E (in respective experiments; 0.8 mg) was added 4 mL of HPLC grade water to create a 0.2 mg/mL solution. 2 mL of this solution was added to a 2 mL HPLC vial and placed in the auto sampler of an HPLC-MS at 20° C. Timed aliquots at time (T)=15, 30, 60, 120, 240 and 480 minutes were taken and analyzed by HPLC-MS using elution method 1 (Table 4).
50° C.: To a 4 mL scintillation vial containing Compound A-E (in respective experiments; 0.8 mg) was added a stir bar followed by 4 mL of HPLC grade water to create a 0.2 mg/mL solution. The vial was capped and allowed to stir in a 50° C. oil bath for 8 hours. Timed aliquots at time (T) =15, 30, 60, 120, 240 and 480 minutes were taken and analyzed by HPLC-MS using elution method 1 (Table 4).

Compound: O=C(CCc1cccnc1)Oc1ccc([N+](=O)[O-])cc1 [Compound D, 4-Nitrophenyl-3-(pyridin-3-yl)propanoate]
- % Remaining ([1]; pH 3 buffer, 15 min): 100%
- % Remaining ([1]; pH 3 buffer, 30 min): 99.74%
- % Remaining ([1]; pH 3 buffer, 60 min): 99.57%
- % Remaining ([1]; pH 3 buffer, 120 min): 99.21%
- % Remaining ([1]; pH 3 buffer, 240 min): 98.55%
- % Remaining ([1]; pH 3 buffer, 480 min): 97.20%
- % Remaining ([1]; pH 5 buffer, 15 min): 99.83%
- % Remaining ([1]; pH 5 buffer, 30 min): 99.54%
- % Remaining ([1]; pH 5 buffer, 60 min): 99.19%
- % Remaining ([1]; pH 5 buffer, 120 min): 98.63%
- % Remaining ([1]; pH 5 buffer, 240 min): 97.52%
- % Remaining ([1]; pH 5 buffer, 480 min): 94.89%
- % Remaining ([1]; pH 7 buffer, 15 min): 99.11%
- % Remaining ([1]; pH 7 buffer, 30 min): 98.00%
- % Remaining ([1]; pH 7 buffer, 60 min): 96.59%
- % Remaining ([1]; pH 7 buffer, 120 min): 94.83%
- % Remaining ([1]; pH 7 buffer, 240 min): 89.25%
- % Remaining ([1]; pH 7 buffer, 480 min): 78.56%
- % Remaining ([1]; pH 9 buffer, 15 min): 83.05%
- % Remaining ([1]; pH 9 buffer, 30 min): 61.77%
- % Remaining ([1]; pH 9 buffer, 60 min): 42.40%
- % Remaining ([1]; pH 9 buffer, 120 min): 23.66%
- % Remaining ([1]; pH 9 buffer, 240 min): 14.96%
- % Remaining ([1]; pH 9 buffer, 480 min): 10.31%
- % Active Ester Remaining ([2]; 15 min): 95.63%
- % Active Ester Remaining ([2]; 30 min): 90.98%
- % Active Ester Remaining ([2]; 60 min): 83.40%
- % Active Ester Remaining ([2]; 120 min): 65.46%
- % Active Ester Remaining ([2]; 240 min): 41.73%
- % Active Ester Remaining ([3]; 15 min): 99.18%
- % Active Ester Remaining ([3]; 30 min): 96.81%
- % Active Ester Remaining ([3]; 60 min): 93.29%
- % Active Ester Remaining ([3]; 120 min): 85.25%
- % Active Ester Remaining ([3]; 240 min): 75.07%
- % Active Ester Remaining ([4]; 15 min): 96.49%
- % Active Ester Remaining ([4]; 30 min): 84.28%
- % Active Ester Remaining ([4]; 60 min): 74.58%
- % Active Ester Remaining ([4]; 120 min): 57.07%
- % Active Ester Remaining ([4]; 240 min): 34.21%
- % Active Ester Remaining in DMSO at 22 ± 2° C. ([5]; 15 min): 99.35%
- % Active Ester Remaining in DMSO at 22 ± 2° C. ([5]; 30 min): 98.99%
- % Active Ester Remaining in DMSO at 22 ± 2° C. ([5]; 60 min): 99.29%
- % Active Ester Remaining in DMSO at 22 ± 2° C. ([5]; 120 min): 99.65%
- % Active Ester Remaining in DMSO at 22 ± 2° C. ([5]; 240 min): 99.31%
- % Active Ester Remaining ([6]; 15 min): 8.34%
- % Active Ester Remaining ([6]; 30 min): 0%
- % Remaining ([7]; 20° C., 15 min): 97.54%
- % Remaining ([7]; 20° C., 30 min): 96.41%
- % Remaining ([7]; 20° C., 60 min): 95.69%
- % Remaining ([7]; 20° C., 120 min): 94.78%
- % Remaining ([7]; 20° C., 240 min): 93.59%
- % Remaining ([7]; 20° C., 480 min): 91.31%
- % Remaining ([7]; 50° C., 15 min): 86.19%
- % Remaining ([7]; 50° C., 30 min): 77.18%
- % Remaining ([7]; 50° C., 60 min): 72.58%
- % Remaining ([7]; 50° C., 120 min): 67.54%
- % Remaining ([7]; 50° C., 240 min): 65.59%
- % Remaining ([7]; 50° C., 480 min): 66.22%

Compound: O=C(CCc1cccnc1)ON1C(=O)CCC1=O [Compound E, 2,5-Dioxo-1-pyrrolidinyl 3-pyridinepropanoate]
- % Remaining ([1]; pH 3 buffer, 15 min): 80.40%
- % Remaining ([1]; pH 3 buffer, 30 min): 59.68%
- % Remaining ([1]; pH 3 buffer, 60 min): 44.51%
- % Remaining ([1]; pH 3 buffer, 120 min): 26.16%
- % Remaining ([1]; pH 3 buffer, 240 min): 8.98%
- % Remaining ([1]; pH 3 buffer, 480 min): 1.00%
- % Remaining ([1]; pH 5 buffer, 15 min): 85.59%
- % Remaining ([1]; pH 5 buffer, 30 min): 52.98%
- % Remaining ([1]; pH 5 buffer, 60 min): 33.12%
- % Remaining ([1]; pH 5 buffer, 120 min): 13.81%
- % Remaining ([1]; pH 5 buffer, 240 min): 2.33%
- % Remaining ([1]; pH 5 buffer, 480 min): 0%
- % Remaining ([1]; pH 7 buffer, 15 min): 86.24%
- % Remaining ([1]; pH 7 buffer, 30 min): 44.91%
- % Remaining ([1]; pH 7 buffer, 60 min): 19.80%
- % Remaining ([1]; pH 7 buffer, 120 min): 4.02%
- % Remaining ([1]; pH 7 buffer, 240 min): 0%
- % Remaining ([1]; pH 9 buffer, 15 min): 6.98%
- % Remaining ([1]; pH 9 buffer, 30 min): 1.20%
- % Remaining ([1]; pH 9 buffer, 60 min): 0.74%
- % Remaining ([1]; pH 9 buffer, 120 min): 0%
- % Active Ester Remaining ([2]; 15 min): 32.07%
- % Active Ester Remaining ([2]; 30 min): 20.77%
- % Active Ester Remaining ([2]; 60 min): 11.58%
- % Active Ester Remaining ([2]; 120 min): 6.52%
- % Active Ester Remaining ([2]; 240 min): 4.21%
- % Active Ester Remaining ([3]; 15 min): 15.47%
- % Active Ester Remaining ([3]; 30 min): 12.28%
- % Active Ester Remaining ([3]; 60 min): 11.06%
- % Active Ester Remaining ([3]; 120 min): 7.15%
- % Active Ester Remaining ([3]; 240 min): 3.69%
- % Active Ester Remaining ([4]; 15 min): 1.13%
- % Active Ester Remaining ([4]; 30 min): 0.85%
- % Active Ester Remaining ([4]; 60 min): 0.67%
- % Active Ester Remaining ([4]; 120 min): 0.49%
- % Active Ester Remaining ([4]; 240 min): 0.35%
- % Active Ester Remaining in DMSO at 22 ± 2° C. ([5]; 15 min): 97.29%
- % Active Ester Remaining in DMSO at 22 ± 2° C. ([5]; 30 min): 97.13%
- % Active Ester Remaining in DMSO at 22 ± 2° C. ([5]; 60 min): 96.83%
- % Active Ester Remaining in DMSO at 22 ± 2° C. ([5]; 120 min): 94.53%
- % Active Ester Remaining in DMSO at 22 ± 2° C. ([5]; 240 min): 91.57%
- % Active Ester Remaining ([6]; 15 min): 0%
- % Remaining ([7]; 20° C., 15 min): 87.24%
- % Remaining ([7]; 20° C., 30 min): 78.45%
- % Remaining ([7]; 20° C., 60 min): 70.03%
- % Remaining ([7]; 20° C., 120 min): 54.46%
- % Remaining ([7]; 20° C., 240 min): 24.99%
- % Remaining ([7]; 20° C., 480 min): 4.50%
- % Remaining ([7]; 50° C., 15 min): 72.20%
- % Remaining ([7]; 50° C., 30 min): 47.31%
- % Remaining ([7]; 50° C., 60 min): 20.75%
- % Remaining ([7]; 50° C., 120 min): 3.50%
- % Remaining ([7]; 50° C., 240 min): 0.10%
- % Remaining ([7]; 50° C., 480 min): 0%
